Earlier results as cited in US20260273108A1, “USE OF ACRYLIC ACID-CONTAINING POLYMERS FOR MOLECULAR IMAGING OF TARGET PROTEINS” (The Johns Hopkins University, priority 2023, published 2026).
Like-named read-outs stand apart in the source and are kept apart here. Marks after values point to notes of the source that are not given here.

Assays:
[1] = bolus intravenous injection in humans
[2] = for Radio frequency: radiofrequency for saturation (CEST)
[3] = IV dose for rodents
[4] = water-exchanging protons at a pH of 7-7.4 and temperature of 36-67° C.

| SMILES | IV Dose [1] [mmol/kg] | Radio frequency [2] | Exchange rate kex [2, 4] | Exchange rate kex ([2]; exchange rates for glucose, pH of 7-7.4 and temperature of 36-67° C.) | IV Dose [3] |
| --- | --- | --- | --- | --- | --- |
| C[C@H](N)C(=O)O [Alanine] | 5.61 | 3.0 ppm | 7,670 s^−1 |  |  |
| N[C@H]1C(O)O[C@H](CO)[C@@H](O)[C@@H]1O (stereo partly drawn) [Glucosamine] | 1.86 | 1.2 ppm |  | 2,900-14,000^# s^−1 |  |
| Nc1ccc(C(=O)O)c(O)c1 [4-Aminosalicylate] | 2.33 |  | N/A, 1,200 s^−1 |  |  |
| O=C1CC(=O)NC(=O)N1 [Barbituric acid] |  | 5.0 ppm |  |  | 1.56* mmole/kg |
| N=C(N)NCCC[C@H](N)C(=O)O [Arginine] |  | 1.8-2.0 ppm | 1,200 s^−1 |  |  |
| O=c1ccn([C@@H]2O[C@H](CO)[C@@H](O)[C@H]2O)c(=O)[nH]1 [Uridine] | 1.43 | 6.3-6.4 ppm | 3080 s⁻¹ |  |  |
